From patent US20240122923A1, “METHODS OF TREATING HIDRADENITIS SUPPURATIVA” (AbbVie Inc., priority 2022, published 2024)

Test system: adult human subjects with moderate to severe Hidradenitis Suppurativa (HS)
Experiment: Phase 2 randomized, double-blind, placebo-controlled study of upadacitinib, efficacy incl. post-hoc analysis through week 40
Type: in vivo
Conditions: for Pain NRS30 at Week 12, UPA - PBO Diff: UPA 30 mg vs historical PBO rate 22.5%, p=0.028; for HiSCR at Week 12, UPA - PBO Diff: UPA 30 mg vs historical PBO rate 25%, 1-sided p=0.018; for HiSCR at Week 12, % (N), stratum TNF-IR / HiSCR at Week 12, % (N), stratum Hurley Stage (III) / HiSCR at Week 12, % (N), stratum Hurley Stage (<III) / HiSCR at Week 12, % (N), stratum TNF-Naïve / HiSCR at Week 12, % (N), Overall: UPA 30 mg; for HiSCR at Week 12, % (N), stratum TNF-IR: N=12; for HiSCR at Week 12, % (N), stratum Hurley Stage (III): N=23; for HiSCR at Week 12, % (N), stratum Hurley Stage (<III): N=24; for HiSCR at Week 12, % (N), stratum TNF-Naïve: N=35; for HiSCR at Week 12, % (N), Overall: N=47
Description: This study was a Phase 2, multicenter, randomized, double-blind, parallel-group, placebo-controlled study to evaluate the efficacy and safety of upadacitinib in adult human subjects with moderate to severe Hidradenitis Suppurativa (HS).
The duration of the study was 57 weeks, including an approximately 35-day screening period followed by a 48-week double-blinded treatment period and a 30-day follow-up visit after the last dose of study drug. Subjects were randomized in a 2:1 ratio to 1 of the 2 arms as shown below: • Upadacitinib 30 mg once daily (QD) (N=40): Daily oral doses of upadacitinib 30 mg from the Baseline visit through Period 1 and Period 2. • Placebo (N=20): Placebo for upadacitinib from the Baseline visit up to the Week 12 visit (Period 1). At Week 12, subjects were switched to blinded upadacitinib 15 mg QD through Period 2.
The primary objective of this study was to assess the efficacy and safety of upadacitinib 30 mg QD in adult subjects with moderate to severe HS. The primary efficacy objective was assessed based on the achievement of HiSCR after 12 weeks treatment.
The primary endpoint was Hidradenitis Suppurativa Clinical Response (HiSCR) at Week 12, where HiSCR is defined as at least 50% reduction in the total abscess and inflammatory nodule (AN) count with no increase in abscess count and no increase in draining fistula count relative to Baseline.
The secondary endpoint was Pain Numerical Rating Scale (NRS30) at Week 12: the achievement of at least 30% reduction and at least 1 unit reduction from Baseline in NRS30 in Patient's Global Assessment of Skin Pain (PGA Skin Pain) at Week 12, among subjects with Baseline NRS≥3.
The following additional efficacy endpoints were evaluated: • 1. Experience of flare, defined as an increase in AN count of at least 25% with a minimum increase of 2 relative to Baseline • 2. Change from Baseline in Dermatology Life Quality Index (DLQI) • 3. Change from baseline in Hidradenitis Suppurativa Symptom Assessment (HSSA) • 4. Change from baseline in HS-related swelling, assessed based on the HSSA • 5. Change from baseline in HS-related odor, assessed based on the HSSA • 6. Change from baseline in HS-related worst drainage, assessed based on the HSSA
For the primary and secondary endpoints, comparisons of upadacitinib vs. placebo were made with 3 different analysis strategies, as summarized in Table 1 below:
For the additional endpoints, comparisons were made for upadacitinib vs. historical reference value of placebo, and upadacitinib vs. in-trial placebo subjects.
For categorical variables, the primary approach to handle missing data was Non-Responder Imputation [NRI] incorporating Multiple Imputation [MI]. For continuous variables, missing data was handled by Mixed-effect Model Repeat Measurement (MMRM). Missing data for long-term efficacy in Period 2 were handled based on the observed case (OC).
A post-hoc efficacy assessment through week 40 was performed in the study of Example 1. The analysis included the proportion of patients achieving ≥75% and ≥90% reduction from baseline in AN count with no increase in abscess or draining fistula count (HiSCR 75 and HiSCR 90, respectively) and the proportion of patients achieving ≥55% reduction in International HS Severity Score System endpoint (IHS4-55), which dynamically assesses inflammatory nodules, abscesses, and draining tunnels.

[1] = UPA 30 mg vs in-trial PBO, p=0.086
[2] = MI, analysis vs synthetic + in-trial PBO

## CC[C@@H]1CN(C(=O)NCC(F)(F)F)C[C@@H]1c1cnc2cnc3[nH]ccc3n12 [upadacitinib]
  Pain NRS30 at Week 12, UPA - PBO Diff: 13.9%
Listed as UPA
  Pain NRS30 at Week 12, UPA - PBO Diff: Diff = 13.9%
NRI-C
  HiSCR at Week 12, UPA - PBO Diff: 13.3%
  HiSCR at Week 12, % (N), stratum TNF-IR: 41.7%
  HiSCR at Week 12, % (N), stratum Hurley Stage (III): 39.1% (N = 23)
  HiSCR at Week 12, % (N), stratum Hurley Stage (<III): 37.5% (N = 24)
  HiSCR at Week 12, % (N), stratum TNF-Naïve: 37.1%
NRI-C, listed as UPA
  HiSCR at Week 12, UPA - PBO Diff: Diff = 13.3%
  HiSCR at Week 12, % (N), stratum TNF-IR: 41.7% (N = 12)
UPA 30 mg vs historical PBO rate 34%, p=0.001
  Flare during Period 1, UPA - PBO Diff: Diff = −21.2
UPA 30 mg vs historical reference value −0.72, p=0.072
  Change in HSSA odor at Week 12, UPA - PBO Diff: Diff = −0.479
UPA 30 mg vs historical reference value −0.72, p=0.188
  Change in HSSA total symptom at Week 12, UPA - PBO Diff: Diff = −0.249
UPA 30 mg vs historical reference value −0.8, p=0.364
  Change in HSSA swelling at Week 12, UPA - PBO Diff: Diff = −0.131
UPA 30 mg vs historical reference value −0.89, p=0.219
  Change in HSSA worst drainage at Week 12, UPA - PBO Diff: Diff = −0.241
UPA 30 mg vs historical reference value −2.5, p=0.548
  Change in DLQI at Week 12, UPA - PBO Diff: Diff = 0.1
UPA 30 mg vs in-trial PBO (N=12), p=0.421
  Pain NRS30 at Week 12, UPA - PBO Diff (adjusted difference): 2.2%
UPA 30 mg vs in-trial PBO (N=12), p=0.421, listed as UPA
  Pain NRS30 at Week 12, UPA - PBO Diff (adjusted difference): Diff = 2.2%
UPA 30 mg vs in-trial PBO (N=21), NRI-C, p=0.087
  HiSCR at Week 12, UPA - PBO Diff (adjusted difference): 14.7%
UPA 30 mg vs in-trial PBO (N=21), NRI-C, p=0.087, listed as UPA
  HiSCR at Week 12, UPA - PBO Diff (adjusted difference): Diff = 14.7%
UPA 30 mg vs in-trial PBO, p=0.024
  Change in HSSA odor at Week 12, UPA - PBO Diff: Diff = −1.246
UPA 30 mg vs in-trial PBO, p=0.046
  Change in HSSA total symptom at Week 12, UPA - PBO Diff: Diff = −0.762
[1]
  Change in HSSA swelling at Week 12, UPA - PBO Diff: Diff = −0.795
  Change in HSSA worst drainage at Week 12, UPA - PBO Diff: Diff = −0.695
UPA 30 mg vs in-trial PBO, p=0.222
  Change in DLQI at Week 12, UPA - PBO Diff: Diff = −1.4
UPA 30 mg vs in-trial PBO, p=0.231
  Flare during Period 1, UPA - PBO Diff: Diff = −6.5
UPA 30 mg vs synthetic plus in-trial PBO (N=80), p=0.323
  Pain NRS30 at Week 12, UPA - PBO Diff (adjusted difference): 4.5% (−14.6, 23.5)
UPA 30 mg vs synthetic plus in-trial PBO (N=80), p=0.323, listed as UPA
  Pain NRS30 at Week 12, UPA - PBO Diff (adjusted difference): Diff = 4.5%
UPA 30 mg vs synthetic plus in-trial PBO (N=89), NRI-C, p=0.142
  HiSCR at Week 12, UPA - PBO Diff (adjusted difference): 9.2% (−7.6, 25.9)
UPA 30 mg vs synthetic plus in-trial PBO (N=89), NRI-C, p=0.142, listed as UPA
  HiSCR at Week 12, UPA - PBO Diff (adjusted difference): Diff = 9.2%
MI, analysis vs in-trial PBO
  HiSCR at Week 12, % (N), stratum TNF-IR: 41.7% (N = 12)
  HiSCR at Week 12, % (N), stratum Hurley Stage (III): 39.7% (N = 23)
  HiSCR at Week 12, % (N), stratum Hurley Stage (<III): 38.1% (N = 24)
  HiSCR at Week 12, % (N), stratum TNF-Naïve: 37.9% (N = 35)
  HiSCR at Week 12, % (N), Overall: 38.9% (N = 47)
[2]
  HiSCR at Week 12, % (N), stratum TNF-IR: 41.7% (N = 12)
  HiSCR at Week 12, % (N), stratum Hurley Stage (III): 40.3% (N = 23)
  HiSCR at Week 12, % (N), stratum Hurley Stage (<III): 39.0% (N = 24)
  HiSCR at Week 12, % (N), stratum TNF-Naïve: 39.0% (N = 35)
  HiSCR at Week 12, % (N), Overall: 39.6% (N = 47)
